According to ChEMBL document CHEMBL6092192 (J Med Chem, 2024):

Tests used:
[1] = tested on: SW620/AD300; assay: Reversal of paclitaxel resistance in human SW620/AD300 cells assessed as reversal fold by measuring ratio of paclitaxel IC50 to paclitaxel IC50 in presence of test compound incubated for 72 hrs by MTT assay; format: functional
[2] = tested on: SW620/AD300; assay: Cytotoxicity against multidrug resistant human SW620/AD300 cells assessed as survival rate at 4 uM measured after 72 hrs by MTT assay relative to control; format: functional; conditions: read-out: Survival
[3] = tested on: SW-620; assay: Cytotoxicity against human SW620 cells measured after 72 hrs by MTT assay; format: functional, cell-based; conditions: SW-620, 72 h
[4] = tested on: SW-620; assay: Reversal of paclitaxel resistance in human SW620 cells assessed as reversal fold by measuring ratio of paclitaxel IC50 to paclitaxel IC50 in presence of test compound at 4 uM incubated for 72 hrs by MTT assay; format: functional
[5] = tested on: SW620/AD300; assay: Cytotoxicity against multidrug resistant human SW620/AD300 cells measured after 72 hrs by MTT assay; format: functional, cell-based; conditions: SW620/AD300, 72 h
[6] = tested on: KB-C2; assay: Cytotoxicity against human KB-C2 cells measured after 72 hrs by MTT assay; format: functional, cell-based; conditions: KB-C2, 72 h
[7] = tested on: KB 3-1; assay: Cytotoxicity against human KB 3-1 cells measured after 72 hrs by MTT assay; format: functional, cell-based; conditions: KB 3-1, 72 h
[8] = tested on: HEK293; assay: Cytotoxicity against HEK293 cells transfected with pcDNA3.1 measured after 72 hrs by MTT assay; format: functional, cell-based; conditions: Homo sapiens, HEK293, 72 h
[9] = tested on: HEK293; assay: Cytotoxicity against HEK293 cells harbouring ABCB1 measured after 72 hrs by MTT assay; format: functional, cell-based; conditions: Homo sapiens, HEK293, 72 h

Row | SMILES | Ratio IC50 [1] | viability at 4 µM [2] [%] | other results
1 | Cc1cc(=O)n2nc(SCc3cccc4ccccc34)nc2[nH]1 | 24.27 | 97.8 | –
2 | O=c1c2c([nH]c3ncnn13)CCC2 | 13.94 | 96.2 | –
3 | O=c1c2c([nH]c3ncnn13)CCCCC2 | 3.57 | 95.3 | –
4 | Cc1cc(=O)n2nc(SCc3nc4ccccc4[nH]3)nc2[nH]1 | 44.54 | 96.8 | –
5 | Cc1[nH]c2ncnn2c(=O)c1C | 4.36 | 93.8 | –
6 | CC(=O)O[C@H]1C(=O)[C@@]2(C)[C@H]([C@H](OC(=O)c3ccccc3)[C@]3(O)C[C@H](OC(=O)[C@H](O)[C@@H](NC(=O)c4ccccc4)c4ccccc4)C(C)=C1C3(C)C)[C@]1(OC(C)=O)CO[C@@H]1C[C@@H]2O [PACLITAXEL] | – | – | IC50 [3]: 6.55 nM; Ratio IC50 [4]: 1.03; IC50 [5]: 4320 nM; IC50 [6]: 2090 nM; IC50 [7]: 4.32 nM; IC50 [8]: 2.08 nM; IC50 [9]: 106 nM
7 | O=c1c2c([nH]c3nc(SCc4nc5ccccc5[nH]4)nn13)CCC2 | 69.68 | 94.7 | –
8 | CCCCCc1c(C)[nH]c2ncnn2c1=O | 1 | 98.6 | –
9 | CCOC(=O)CCc1c(C)[nH]c2ncnn2c1=O | 1.03 | 94.2 | –
10 | Cc1cc(=O)n2nc(SCc3ccc([N+](=O)[O-])cc3)nc2[nH]1 | 7.08 | 93.2 | –
11 | O=c1cc(-c2ccccc2)[nH]c2ncnn12 | 1.03 | 99 | –
12 | COC(=O)c1nc2[nH]c3c(c(=O)n2n1)CCC3 | 20.57 | 94.7 | –
13 | Cc1cc(=O)n2nc(SCc3nc4ccccc4s3)nc2[nH]1 | 60.85 | 97.2 | –
14 | C#CCSc1nc2[nH]c3c(c(=O)n2n1)CCC3 | 24 | 96.9 | –
15 | Cc1cc(=O)n2nc(SCC3CCCCC3)nc2[nH]1 | 6 | 92.6 | –
16 | O=c1cc(C2CC2)[nH]c2ncnn12 | 1.36 | 92.5 | –
17 | Cc1cc(=O)n2nc(SCc3ccc(F)cc3)nc2[nH]1 | 14.9 | 99.4 | –
18 | Cc1cc(=O)n2c(C#N)c(C#N)nc2[nH]1 | 1.38 | 97.5 | –
19 | CC(C)c1cc(=O)n2ncnc2[nH]1 | 1.39 | 95.7 | –
20 | O=c1c2c([nH]c3nc(SCc4csc5ccc(Cl)cc45)nn13)CCC2 | 56.1 | 98.8 | –

Row | SMILES | Ratio IC50 [1] | viability at 4 µM [2] [%] | other results
21 | CCc1cc(=O)n2ncnc2[nH]1 | 1.83 | 95.9 | –
22 | Cc1cc(=O)n2nc(SCc3ccc(C(F)(F)F)cc3)nc2[nH]1 | 4.08 | 97.6 | –
23 | Cc1cc(=O)n2nc(SCc3ccc(Br)cc3)nc2[nH]1 | 10.29 | 94.9 | –
24 | Cc1cc(=O)n2ncnc2[nH]1 | 5.4 | 97.6 | –
25 | Cc1cc(=O)n2nc(SCc3ccc(Cl)c(F)c3)nc2[nH]1 | 18 | 97.6 | –
26 | O=c1c2c([nH]c3ncnn13)CCCC2 | 6.45 | 94.7 | –
27 | O=c1c2c([nH]c3ncnn13)COC2 | 6.75 | 98 | –
28 | O=c1c2c([nH]c3nc(SCc4ccccc4)nn13)CCC2 | 25.41 | 94.7 | –
29 | Cc1cc(=O)n2nccc2[nH]1 | 2.81 | 93.9 | –
30 | Cc1cc(=O)n2nc(SCc3csc4ccc(Cl)cc34)nc2[nH]1 | 18 | 94.6 | –
31 | O=c1c2c([nH]c3ncnn13)CSC2 | 8 | 97.7 | –
32 | Cc1cc(=O)n2c(nc3ccccc32)[nH]1 | 1.09 | 96.2 | –
33 | COC(=O)c1nc2[nH]c(C)cc(=O)n2n1 | 4.5 | 97.9 | –
34 | Cc1cc(=O)n2nc(SCc3ccc(Cl)cc3)nc2[nH]1 | 13.94 | 94.5 | –
35 | Cc1cc(=O)n2nc(SCc3ccccc3)nc2[nH]1 | 10.8 | 95 | –
36 | COc1ccc(CSc2nc3[nH]c(C)cc(=O)n3n2)cc1 | 33.49 | 93.6 | –
37 | Cc1cc(=O)n2nc(SCc3cc(=O)oc4c3ccc3ccccc34)nc2[nH]1 | 57.6 | 97.1 | –
38 | O=c1cc(C(F)F)[nH]c2ncnn12 | 1.06 | 92.4 | –
39 | C#CCSc1nc2[nH]c(C)cc(=O)n2n1 | 4.6 | 97.2 | –
